# According to US8674109B2, “Pesticidal compositions” (Dow AgroSciences, LLC., priority 2009, dated 2014):
# Legend:
# Type in all cases: in vivo
# [1] = tested on: green peach aphid (Myzus persicae); experiment: Insecticidal test for green peach aphid in foliar spray assay on cabbage seedlings
# Outline: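 Cabbage seedlings carrying 20-50 aphids (adults and nymphs) were sprayed to runoff with compound at 200 ppm in acetone/methanol diluted in 0.025% Tween 20, with four pots per treatment. After three days at about 25 °C and 40% RH, live aphids were counted. Percent control was Abbott-corrected against solvent-check plants.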
# [2] = tested on: beet armyworm (BAW; Spodoptera exigua: Lepidoptera); experiment: Insecticidal test for beet armyworm, 128-well diet tray assay
# Outline: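 Three to five second-instar larvae per well fed on artificial diet surface-treated with 50 μg/cm^2 compound (applied in 90:10 acetone-water, dried). Trays were held six days at 25 °C, 14:10 light-dark. Percent mortality was averaged across eight wells.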
# [3] = tested on: corn earworm (CEW; Helicoverpa zea: Lepidoptera); experiment: Insecticidal test for corn earworm, 128-well diet tray assay
# Outline: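 Second-instar larvae, three to five per well, placed on artificial diet treated with 50 μg/cm^2 compound applied in 90:10 acetone-water and dried. Held six days at 25° C., 14:10 light-dark. Percent mortality scored per well and averaged over eight wells.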
Compound,% Mortality GPA 200 ppm [1],% Mortality BAW 50 μg/cm^2 [2],% Mortality CEW 50 μg/cm^2 [3]
CC(Cc1ccccc1)OC(=O)Nc1ccc(-c2ncn(-c3ccc(OC(F)(F)F)cc3)n2)cc1 (stereo not drawn) [Compound 107],B (Less than 80),A (50-100),A (50-100)
CC1(OC(=O)Nc2ccc(-c3ncn(-c4ccc(OC(F)(F)F)cc4)n3)cc2)Cc2ccccc2C1 [Compound 108],B (Less than 80),B (Less than 50),B (Less than 50)
O=C(Nc1ccc(-c2ncn(-c3ccc(OC(F)(F)F)cc3)n2)cc1)OC1CCc2ccccc21 (stereo not drawn) [Compound 109],B (Less than 80),B (Less than 50),A (50-100)
CC(OC(=O)Nc1ccc(-c2ncn(-c3ccc(OC(F)(F)F)cc3)n2)cc1)c1cccnc1 (stereo not drawn) [Compound 110],B (Less than 80),A (50-100),A (50-100)
O=C(Nc1ccc(-c2ncn(-c3ccc(OC(F)(F)F)cc3)n2)cc1)OCc1c(Cl)cccc1Cl [Compound 111],B (Less than 80),B (Less than 50),A (50-100)
N#CC(OC(=O)Nc1ccc(-c2ncn(-c3ccc(OC(F)(F)F)cc3)n2)cc1)c1ccccc1 (stereo not drawn) [Compound 112],B (Less than 80),A (50-100),A (50-100)
CCC(CC)OC(=O)Nc1ccc(-c2ncn(-c3ccc(OC(F)(F)F)cc3)n2)cc1 [Compound 113],B (Less than 80),A (50-100),A (50-100)
CC(OC(=O)Nc1ccc(-c2ncn(-c3ccc(OC(F)(F)F)cc3)n2)cc1)c1c(F)c(F)c(F)c(F)c1F (stereo not drawn) [Compound 114],B (Less than 80),A (50-100),B (Less than 50)
CC(OC(=O)Nc1ccc(-c2ncn(-c3ccc(OC(F)(F)F)cc3)n2)cc1)c1ccc(C(F)(F)F)cc1C(F)(F)F (stereo not drawn) [Compound 115],B (Less than 80),B (Less than 50),B (Less than 50)
CC(OC(=O)Nc1ccc(-c2ncn(-c3ccc(OC(F)(F)F)cc3)n2)cc1)c1ccc(-c2ccccc2)cc1 (stereo not drawn) [Compound 116],B (Less than 80),B (Less than 50),A (50-100)
CC(OC(=O)Nc1ccc(-c2ncn(-c3ccc(OC(F)(F)F)cc3)n2)cc1)c1ccc(F)cn1 (stereo not drawn) [Compound 117],B (Less than 80),A (50-100),A (50-100)
CC(OC(=O)Nc1ccc(-c2ncn(-c3ccc(OC(F)(F)F)cc3)n2)cc1)c1ccc(Cl)cn1 (stereo not drawn) [Compound 118],B (Less than 80),A (50-100),A (50-100)
COc1ccc(C(C)OC(=O)Nc2ccc(-c3ncn(-c4ccc(OC(F)(F)F)cc4)n3)cc2)nc1 (stereo not drawn) [Compound 119],B (Less than 80),A (50-100),A (50-100)
CC(OC(=O)Nc1ccc(-c2ncn(-c3ccc(OC(F)(F)F)cc3)n2)cc1)c1cccc(Cl)n1 (stereo not drawn) [Compound 120],B (Less than 80),A (50-100),A (50-100)
Cc1cc(C)c(CCOC(=O)Nc2ccc(-c3ncn(-c4ccc(OC(F)(F)F)cc4)n3)cc2)c(C)c1 [Compound 121],B (Less than 80),B (Less than 50),A (50-100)
O=C(Nc1ccc(-c2ncn(-c3ccc(OC(F)(F)F)cc3)n2)cc1)Oc1ccccc1 [Compound 122],B (Less than 80),A (50-100),A (50-100)
Cc1ccc(OC(=O)Nc2ccc(-c3ncn(-c4ccc(OC(F)(F)F)cc4)n3)cc2)cn1 [Compound 123],B (Less than 80),B (Less than 50),B (Less than 50)
O=C(Nc1ccc(-c2ncn(-c3ccc(OC(F)(F)F)cc3)n2)cc1)Oc1ccccc1C(F)(F)F [Compound 124],B (Less than 80),A (50-100),A (50-100)
Cc1cc(Cl)ccc1OC(=O)Nc1ccc(-c2ncn(-c3ccc(OC(F)(F)F)cc3)n2)cc1 [Compound 128],B (Less than 80),A (50-100),A (50-100)
O=C(Nc1ccc(-c2ncn(-c3ccc(OC(F)(F)F)cc3)n2)cc1)Oc1cccc(-c2ccccc2)c1 [Compound 129],B (Less than 80),A (50-100),A (50-100)
"CCN(C(=O)OC(C)c1ccc(C(F)(F)F)nc1)c1ccc(-c2ncn(-c3ccc(OC(F)(F)F)cc3)n2)cc1 (stereo not drawn) [Compound 130, 1-(6-(trifluoromethyl)pyridin-3-yl)ethyl ethyl(4-(1-(4-(trifluoromethoxy)phenyl)-1H-1,2,4-triazol-3-yl)phenyl)carbamate]",B (Less than 80),A (50-100),A (50-100)
"COC(=S)Nc1ccc(-c2ncn(-c3ccc(OC(F)(F)F)cc3)n2)cc1 [Compound 132, O-methyl 4-(1-(4-(trifluoromethoxy)phenyl)-1H-1,2,4-triazol-3-yl)phenylcarbamothioate]",B (Less than 80),A (50-100),B (Less than 50)
"CC(OC(=S)Nc1ccc(-c2ncn(-c3ccc(OC(F)(F)F)cc3)n2)cc1)c1ccc(C(F)(F)F)nc1 (stereo not drawn) [Compound 133, O-1-(6-(trifluoromethyl)pyridin-3-yl)ethyl 4-(1-(4-(trifluoromethoxy)phenyl)-1H-1,2,4-triazol-3-yl)phenylcarbamothioate]",B (Less than 80),A (50-100),A (50-100)
"Fc1ccc(OC(=S)Nc2ccc(-c3ncn(-c4ccc(OC(F)(F)F)cc4)n3)cc2)cc1 [Compound 134, O-4-fluorophenyl 4-(1-(4-(trifluoromethoxy)phenyl)-1H-1,2,4-triazol-3-yl)phenylcarbamothioate]",B (Less than 80),B (Less than 50),B (Less than 50)
"COC(=O)Nc1ccc(-c2ncn(-c3ccc(OC(F)(F)C(F)(F)F)cc3)n2)cc1 [Compound 135, methyl 4-(1-(4-(perfluoroethoxy)phenyl)-1H-1,2,4-triazol-3-yl)phenylcarbamate]",B (Less than 80),A (50-100),A (50-100)
"CN(C(=O)Oc1ccc([N+](=O)[O-])cc1)c1ccc(-c2ncn(-c3ccc(OC(F)(F)F)cc3)n2)cc1 [Compound 136, methyl-{4-[1-(4-trifluoromethoxyphenyl)-1H-[1,2,4]triazol-3-yl]-phenyl}-carbamic acid 4-nitrophenyl ester]",B (Less than 80),B (Less than 50),B (Less than 50)
